Reference: patent US20250218201A1, “ANALYZING PHENOTYPES OF CELLS” (priority 2023, published 2025)

Legend:
Type in all cases: cell-based
[1] = Annexin V / SYTOX AADvanced flow cytometry of cell death states; settings: human, read-out: viable cells (flow cytometry, Annexin V/SYTOX staining)
Description: (§1) The REM-I platform was used to obtain images of cells at different states of dying than one another. More specifically, live, viable Jurkat (T Lymphocyte), Clone E6-1 cells were cultured in RPMI-1640 medium (ThermoFisher Scientific) with 10% fetal bovine serum (FBS) at 37° C. with 5% CO2. A suspension of the cells was prepared at a concentration of 2×10^6 cells/mL for apoptosis and necrosis induction. The following treatments were used to induce cell death (e.g., via apoptosis or necrosis) in different samples of the suspension.
(§2) Sample 2: Camptothecin (ab120115, Abcam), a DNA topoisomerase inhibitor, was administered to the suspension of Jurkat cells at a final concentration of 10 μM and incubated at 37° C. with 5% CO2 for six hours to induce apoptosis by perturbing topoisomerase I.
(§3) Sample 3: Staurosporine (ab120056, Abcam), a protein kinase inhibitor, was administered to the suspension of Jurkat cells at a final concentration of 2 μM and incubated at 37° C. with 5% CO2 for either three hours or for eighteen hours to induce apoptosis by G2/M cell cycle arrest.
(§4) Following treatment, each of the samples was split into two aliquots, one for use in REM-I morphology profiling and one for use in flow cytometry assessment. For morphology profiling, treated cells at a concentration of 3×10^6 cells per mL in a single cell suspension were run on the REM-I platform with a flow rate of about 300 cells/second, and more than about 40,000 images were captured. The data suite 190, described with reference to FIG. 1, was trained using the multi-dimensional feature vectors from the cells and used to generate reduced-dimensionality plots which will be described with reference to FIGS. 16, 17, and 18. For flow cytometry, 1×10^6 treated cells in 100 μL were incubated with 5 μL of PACIFIC BLUE™ Annexin V stock (per manufacturer recommendation) and 1 μL of SYTOX™ AADVANCED™ (A35136, ThermoFisher) for 30 minutes at room temperature and then analyzed with the BD FACSMELODY™ cell sorter and BD FACSCHORUS™ software (BD Biosciences, California).

[2] = test system: Jurkat (T Lymphocyte), Clone E6-1 cells; assay: as above
Description: as §1, §2, §3, §4

[3] = test system: Jurkat (T Lymphocyte), Clone E6-1 cells; assay: REM-I label-free high-dimensional morphology profiling (UMAP); settings: 10 μM camptothecin, 6 hours, unstained brightfield images
Description: as §1
Sample 2: Camptothecin (ab120115, Abcam), a DNA topoisomerase inhibitor, was administered to the suspension of Jurkat cells at a final concentration of 10 μM and incubated at 37° C. with 5% CO2 for six hours to induce apoptosis by perturbing topoisomerase I. […]
Following treatment, each of the samples was split into two aliquots, one for use in REM-I morphology profiling and one for use in flow cytometry assessment. […] For flow cytometry, 1×10^6 treated cells in 100 μL were incubated with 5 μL of PACIFIC BLUE™ Annexin V stock (per manufacturer recommendation) and 1 μL of SYTOX™ AADVANCED™ (A35136, ThermoFisher) for 30 minutes at room temperature and then analyzed with the BD FACSMELODY™ cell sorter and BD FACSCHORUS™ software (BD Biosciences, California).

[4] = 2 μM staurosporine, eighteen hours
[5] = 2 μM staurosporine, three hours

CC[C@@]1(O)C(=O)OCc2c1cc1n(c2=O)Cc2cc3ccccc3nc2-1 [Sample 2, Camptothecin]
viability at 6 h, 10 μM ([1]; Jurkat (T lymphocyte), Clone E6-1 cells, 10 μM camptothecin, six hours, 37° C.): 71%
apoptotic cells (flow cytometry, Annexin V/SYTOX staining) ([2]; 10 μM camptothecin, six hours, 37° C.): 28.7%
morphological profile on UMAP compared to healthy cells of Sample 1 [3]: morphological shift in the main population

CN[C@@H]1C[C@H]2O[C@@](C)([C@@H]1OC)n1c3ccccc3c3c4c(c5c6ccccc6n2c5c31)C(=O)NC4 [staurosporine, Staurosporine]
viability at 3 h, 2 μM ([1]; Jurkat cells, 2 μM staurosporine, three hours): 14.5%
dead cells (flow cytometry, Annexin V/SYTOX staining) [2, 4]: 12.4%
necrotic cells (flow cytometry, Annexin V/SYTOX staining) [2, 4]: 85.0%
apoptotic cells (flow cytometry, Annexin V/SYTOX staining) [2, 5]: 6.96%
dead cells (flow cytometry, Annexin V/SYTOX staining) [2, 5]: 14.1%
necrotic cells (flow cytometry, Annexin V/SYTOX staining) [2, 5]: 64.5%
